What was measured:
kochia = assay: Test C pre-/postemergence herbicide test; format: in vivo, Kochia scoparia
Outline: (§1)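 Seeds were planted and sprayed preemergence with test chemicals in a non-phytotoxic solvent mixture containing surfactant; postemergence treatments went onto plants 2 to 18 cm tall (1- to 4-leaf stage). After 12 to 14 days in a greenhouse, injury was rated visually against untreated controls on a 0–100 scale.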

barnyardgrass [1] = assay: Test C flooded paddy test; format: in vivo, Echinochloa crus-galli; conditions: for Plant response rating, Barnyardgrass: 500 g ai/ha, visual rating after 12 to 14 days
Outline: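 Postemergence sprays were applied to plants 2 to 18 cm tall (1- to 4-leaf stage); in the flooded paddy test, barnyardgrass was grown to the 2-leaf stage. After 12 to 14 days in a greenhouse, injury was visually rated against untreated controls on a 0–100 scale (100 = complete control).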

lambsquarters = assay: Test C pre-/postemergence herbicide test; format: in vivo, Chenopodium album
Outline: as §1

[2] = test system: common (oilseed) sunflower; assay: Test C pre-/postemergence herbicide test; format: in vivo, Helianthus annuus
Outline: as §1

barnyardgrass [3] = assay: Test A pre-/postemergence herbicide test; format: in vivo, Echinochloa crus-galli
Outline: (§2)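 Seeds sown in sandy loam received a preemergence directed soil spray of compound in non-phytotoxic solvent with surfactant; postemergence plants (2–10 cm, one- to two-leaf stage) were sprayed to runoff at the same time. After ~10 days in greenhouse, injury was rated visually versus untreated controls (0 = no effect, 100 = complete control).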

giant foxtail [4] = assay: Test C pre-/postemergence herbicide test; format: in vivo, Setaria faberi
Outline: as §1

giant foxtail [5] = assay: Test A pre-/postemergence herbicide test; format: in vivo, Setaria faberi
Outline: as §2

ducksalad = assay: Test C flooded paddy test; format: in vivo, Heteranthera limosa; conditions: for Plant response rating, Ducksalad: 500 g ai/ha, visual rating after 12 to 14 days
soybean = assay: Test C pre-/postemergence herbicide test; format: in vivo, Glycine max
Outline: as §1

bermudagrass = assay: Test C pre-/postemergence herbicide test; format: in vivo, Cynodon dactylon
Outline: as §1

large crabgrass [6] = assay: Test A pre-/postemergence herbicide test; format: in vivo, Digitaria sanguinalis
Outline: as §2

large crabgrass [7] = assay: Test C pre-/postemergence herbicide test; format: in vivo, Digitaria sanguinalis
Outline: as §1

rice = assay: Test C flooded paddy test; format: in vivo, Oryza sativa; conditions: for Plant response rating, Rice: 500 g ai/ha, visual rating after 12 to 14 days
Outline: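 Injury scored visually against controls on a 0 (no effect) to 100 (complete control) scale, 12 to 14 days after treatment in greenhouse. Flooded paddy plants treated at 2-leaf stage; postemergence plants at 1- to 4-leaf stage, 2 to 18 cm tall.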

[8] = 125 g ai/ha, scale 0 (no effect) to 100 (complete control), visual, 12 to 14 days, preemergence
[9] = 62 g ai/ha, scale 0 to 100 (0 no effect, 100 complete control)
[10] = 250 g ai/ha, scale of 0 to 100, 0 is no effect, 100 is complete control
[11] = scale 0 to 100 (0 no effect, 100 complete control)
[12] = Postemergence, 250 g ai/ha, 0 to 100 scale, 0 no effect, 100 complete control
[13] = Postemergence, 1000 g ai/ha, 0 to 100 scale, 0 no effect, 100 complete control
[14] = Preemergence, 1000 g ai/ha, visual rating, 0 to 100 scale (0 no effect, 100 complete control)
[15] = preemergence, 250 g ai/ha, visual injury, 0 to 100 scale (0 no effect, 100 complete control)
[16] = 250 g ai/ha, scale 0 to 100 (0 no effect, 100 complete control), visual, 12 to 14 days, preemergence
[17] = 125 g ai/ha, scale 0 to 100 (0 no effect, 100 complete control)
[18] = 62 g ai/ha, preemergence, scale 0 to 100
[19] = 250 g ai/ha, scale 0-100, preemergence
[20] = Preemergence, 500 g ai/ha, scale 0 to 100, 0 no effect, 100 complete control
[21] = Postemergence, 500 g ai/ha, 0 to 100 scale, 0 no effect, 100 complete control
[22] = Postemergence, 2000 g ai/ha, 0 to 100 scale, 0 no effect, 100 complete control
[23] = Preemergence, 2000 g ai/ha, visual rating, 0 to 100 scale (0 no effect, 100 complete control)
[24] = preemergence, 500 g ai/ha, visual injury, 0 to 100 scale (0 no effect, 100 complete control)

Q: How did the “Plant response rating (0 = no effect, 100 = complete control), Kochia” value (kochia; 62 g ai/ha, preemergence) turn out when `CCn1nc(C(C)(C)C)cc1C(=O)Nc1cccc(SC)c1` [Compound 131] was run?
A: 85

Q: And the “Plant response rating, Kochia” value (kochia; [8])?
A: 85

Q: And the “Barnyardgrass plant response rating” value (barnyardgrass [1]; [9])?
A: 0

Q: What about the “Barnyardgrass plant response rating” value (barnyardgrass [1]; 125 g ai/ha, scale of 0 to 100, 0 is no effect, 100 is complete control) of the same molecule?
A: 0

Q: What about the “Barnyardgrass plant response rating” value (barnyardgrass [1]; [10]) of the same molecule?
A: 10

Q: And the “Plant response rating, Barnyardgrass” value (barnyardgrass [1]; [11])?
A: 30

Q: And the “Plant response rating (0 = no effect, 100 = complete control), Lambsquarters” value (lambsquarters; 62 g ai/ha, preemergence)?
A: 95

Q: What about the “Plant response rating, Lambsquarters” value (lambsquarters; [8]) of the same molecule?
A: 100

Q: What about the “Plant response rating (0 = no effect, 100 = complete control), Sunflower” value ([2]; 62 g ai/ha, preemergence) of the same molecule?
A: 0

Q: What about the “Plant response rating, Sunflower” value [2, 8] of the same molecule?
A: 0

Q: And the “Barnyardgrass plant response rating” value (barnyardgrass [3]; [12])?
A: 25

Q: What about the “Plant response rating, Barnyardgrass” value (barnyardgrass [3]; [13]) of the same molecule?
A: 60

Q: What about the “Barnyardgrass plant response rating” value (barnyardgrass [3]; [14]) of the same molecule?
A: 50

Q: What about the “Barnyardgrass plant response rating” value (barnyardgrass [3]; [15]) of the same molecule?
A: 45

Q: What about the “Plant response rating (0 = no effect, 100 = complete control), Foxtail, Giant” value (giant foxtail [4]; 62 g ai/ha, preemergence) of the same molecule?
A: 20

Q: And the “Plant response rating, Foxtail, Giant” value (giant foxtail [4]; [8])?
A: 20

Q: And the “Plant response rating, Foxtail, Giant” value (giant foxtail [4]; [16])?
A: 45

Q: And the “Foxtail, Giant plant response rating” value (giant foxtail [5]; [12])?
A: 10

Q: And the “Plant response rating, Foxtail, Giant” value (giant foxtail [5]; [13])?
A: 15

Q: What about the “Foxtail, Giant plant response rating” value (giant foxtail [5]; [14]) of the same molecule?
A: 75

Q: What about the “Foxtail, Giant plant response rating” value (giant foxtail [5]; [15]) of the same molecule?
A: 10

Q: What about the “Ducksalad plant response rating” value (ducksalad; [9]) of the same molecule?
A: 0

Q: And the “Ducksalad plant response rating” value (ducksalad; [17])?
A: 20

Q: What about the “Ducksalad plant response rating” value (ducksalad; [10]) of the same molecule?
A: 45

Q: What about the “Plant response rating, Ducksalad” value (ducksalad; [11]) of the same molecule?
A: 80

Q: And the “Plant response rating (0 = no effect, 100 = complete control), Soybean” value (soybean; 62 g ai/ha, preemergence)?
A: 0

Q: And the “Plant response rating, Soybean” value (soybean; [8])?
A: 0

Q: And the “Plant response rating, Bermudagrass” value (bermudagrass; 31 g ai/ha, scale 0 to 100, 0 no effect, 100 complete control, last section of Table C (species set of preemergence test))?
A: 0

Q: What about the “Plant response rating (0 = no effect, 100 = complete control), Bermudagrass” value (bermudagrass; 62 g ai/ha, preemergence) of the same molecule?
A: 15

Q: What about the “Plant response rating, Bermudagrass” value (bermudagrass; [8]) of the same molecule?
A: 90

Q: And the “Plant response rating, Bermudagrass” value (bermudagrass; [16])?
A: 95

Q: What about the “Crabgrass, Large plant response rating” value (large crabgrass [6]; [12]) of the same molecule?
A: 20

Q: What about the “Plant response rating, Crabgrass, Large” value (large crabgrass [6]; [13]) of the same molecule?
A: 40

Q: What about the “Crabgrass, Large plant response rating” value (large crabgrass [6]; [14]) of the same molecule?
A: 85

Q: What about the “Crabgrass, Large plant response rating” value (large crabgrass [6]; [15]) of the same molecule?
A: 20

Q: What about the “Plant response rating (0 = no effect, 100 = complete control), Crabgrass, Large” value (large crabgrass [7]; 62 g ai/ha, preemergence) of the same molecule?
A: 45

Q: And the “Plant response rating, Crabgrass, Large” value (large crabgrass [7]; [8])?
A: 90

Q: And the “Plant response rating, Crabgrass, Large” value (large crabgrass [7]; [16])?
A: 90

Q: And the “Rice plant response rating” value (rice; [9])?
A: 0

Q: And the “Rice plant response rating” value (rice; [17])?
A: 0

Q: And the “Rice plant response rating” value (rice; [10])?
A: 0

Q: And the “Plant response rating, Rice” value (rice; [11])?
A: 10

Q: `C=CCNC(=O)c1cccc(NC(=O)c2sc(C(C)(C)C)nc2CC)c1` [Compound 207] was tested. Which “Plant response rating, Kochia” value (kochia; [18]) did it give?
A: 90

Q: What about the “Plant response rating, Kochia” value (kochia; [8]) of the same molecule?
A: 90

Q: What about the “Plant response rating, Kochia” value (kochia; [19]) of the same molecule?
A: 90

Q: What about the “Kochia plant response rating” value (kochia; [20]) of the same molecule?
A: 95

Q: What about the “Barnyardgrass plant response rating” value (barnyardgrass [1]; [9]) of the same molecule?
A: 45

Q: And the “Barnyardgrass plant response rating” value (barnyardgrass [1]; [17])?
A: 65

Q: What about the “Barnyardgrass plant response rating” value (barnyardgrass [1]; [10]) of the same molecule?
A: 75

Q: And the “Plant response rating, Barnyardgrass” value (barnyardgrass [1]; [11])?
A: 85

Q: What about the “Plant response rating, Lambsquarters” value (lambsquarters; [18]) of the same molecule?
A: 90

Q: What about the “Plant response rating, Lambsquarters” value (lambsquarters; [8]) of the same molecule?
A: 95

Q: And the “Plant response rating, Lambsquarters” value (lambsquarters; [19])?
A: 95

Q: And the “Lambsquarters plant response rating” value (lambsquarters; [20])?
A: 95

Q: What about the “Plant response rating, Sunflower” value [2, 18] of the same molecule?
A: 0

Q: And the “Plant response rating, Sunflower” value [2, 8]?
A: 0

Q: What about the “Plant response rating, Sunflower” value [2, 19] of the same molecule?
A: 0

Q: What about the “Sunflower plant response rating” value [2, 20] of the same molecule?
A: 0

Q: And the “Barnyardgrass plant response rating” value (barnyardgrass [3]; [21])?
A: 40

Q: What about the “Plant response rating, Barnyardgrass” value (barnyardgrass [3]; [22]) of the same molecule?
A: 70

Q: And the “Barnyardgrass plant response rating” value (barnyardgrass [3]; [23])?
A: 80

Q: And the “Barnyardgrass plant response rating” value (barnyardgrass [3]; [24])?
A: 70

Q: And the “Plant response rating, Foxtail, Giant” value (giant foxtail [4]; [18])?
A: 0

Q: What about the “Plant response rating, Foxtail, Giant” value (giant foxtail [4]; [8]) of the same molecule?
A: 0

Q: What about the “Plant response rating, Foxtail, Giant” value (giant foxtail [4]; [19]) of the same molecule?
A: 10

Q: And the “Foxtail, Giant plant response rating” value (giant foxtail [4]; [20])?
A: 100

Q: And the “Foxtail, Giant plant response rating” value (giant foxtail [5]; [21])?
A: 10

Q: What about the “Plant response rating, Foxtail, Giant” value (giant foxtail [5]; [22]) of the same molecule?
A: 50

Q: What about the “Foxtail, Giant plant response rating” value (giant foxtail [5]; [23]) of the same molecule?
A: 90

Q: And the “Foxtail, Giant plant response rating” value (giant foxtail [5]; [24])?
A: 75

Q: What about the “Ducksalad plant response rating” value (ducksalad; [9]) of the same molecule?
A: 55

Q: And the “Ducksalad plant response rating” value (ducksalad; [17])?
A: 80

Q: What about the “Ducksalad plant response rating” value (ducksalad; [10]) of the same molecule?
A: 80

Q: And the “Plant response rating, Ducksalad” value (ducksalad; [11])?
A: 85

Q: What about the “Plant response rating, Soybean” value (soybean; [18]) of the same molecule?
A: 0

Q: What about the “Plant response rating, Soybean” value (soybean; [8]) of the same molecule?
A: 0

Q: And the “Plant response rating, Soybean” value (soybean; [19])?
A: 0

Q: And the “Soybean plant response rating” value (soybean; [20])?
A: 0

Q: And the “Plant response rating, Bermudagrass” value (bermudagrass; 62 g ai/ha, preemergence, scale 0 to 100, 0 no effect, 100 complete control)?
A: 50

Q: And the “Plant response rating, Bermudagrass” value (bermudagrass; [8])?
A: 80

Q: And the “Plant response rating, Bermudagrass” value (bermudagrass; [19])?
A: 100

Q: What about the “Bermudagrass plant response rating” value (bermudagrass; [20]) of the same molecule?
A: 100

Q: And the “Crabgrass, Large plant response rating” value (large crabgrass [6]; [21])?
A: 20

Q: What about the “Plant response rating, Crabgrass, Large” value (large crabgrass [6]; [22]) of the same molecule?
A: 65

Q: And the “Crabgrass, Large plant response rating” value (large crabgrass [6]; [23])?
A: 90

Q: What about the “Crabgrass, Large plant response rating” value (large crabgrass [6]; [24]) of the same molecule?
A: 95

Q: And the “Plant response rating, Crabgrass, Large” value (large crabgrass [7]; [18])?
A: 80

Q: What about the “Plant response rating, Crabgrass, Large” value (large crabgrass [7]; [8]) of the same molecule?
A: 90

Q: And the “Plant response rating, Crabgrass, Large” value (large crabgrass [7]; [19])?
A: 100

Q: And the “Crabgrass, Large plant response rating” value (large crabgrass [7]; [20])?
A: 100

Q: And the “Rice plant response rating” value (rice; [9])?
A: 30

Q: What about the “Rice plant response rating” value (rice; [17]) of the same molecule?
A: 45

Q: And the “Rice plant response rating” value (rice; [10])?
A: 50

Q: And the “Plant response rating, Rice” value (rice; [11])?
A: 60

— US20060069132A1, “Azolecarboxamide herbicides” (priority 2004, published 2006)
